Measurements taken from patent US20060052435A1, “Selective dopamin d3 receptor agonists for the treatment of sexual dysfunction” (priority 2001, published 2006).

Tests used:
ferrets = experiment: 7-OH-DPAT-induced emesis in the ferret; type: in vivo; details: s.c.; minimum dose completely inhibiting emesis in all animals, n = 3
[1] = biological target: human recombinant D2short (hD2s) receptors (Homo sapiens, UniProt P14416); experiment: inhibition of binding of [3H]-spiperone; details: n = 3-11; read-out: Affinity estimates (pKi ± s.e.m.) hD2s (converted)
[2] = ferret, in vivo, sc

human recombinant D2short (hD2s) receptors, sequence (P14416 1-414 isoform P14416-2): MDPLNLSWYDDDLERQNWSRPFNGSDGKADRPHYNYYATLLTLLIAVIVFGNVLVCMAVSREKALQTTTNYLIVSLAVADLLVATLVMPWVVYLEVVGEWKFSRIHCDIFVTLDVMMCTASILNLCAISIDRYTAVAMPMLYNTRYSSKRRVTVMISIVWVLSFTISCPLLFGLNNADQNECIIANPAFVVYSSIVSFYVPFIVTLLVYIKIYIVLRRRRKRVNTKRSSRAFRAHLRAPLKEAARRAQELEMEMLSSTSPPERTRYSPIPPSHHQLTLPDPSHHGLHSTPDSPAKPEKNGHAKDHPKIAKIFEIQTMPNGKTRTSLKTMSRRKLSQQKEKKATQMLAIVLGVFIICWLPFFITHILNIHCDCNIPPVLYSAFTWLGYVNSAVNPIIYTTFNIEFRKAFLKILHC

## CCc1cc(Cl)c(OC)c(C(=O)NC[C@@H]2CCCN2CC)c1O [(S)-eticlopride]
ferrets
  Antagonist potency ED100 versus 7-OH-DPAT-induced emesis: 0.03 mg/kg
[1]
  Ki: 0.501 nM
[2]
  Brain conc^n: 377 ng/g
